The text below walks through data of US20240116985A1, “STAPLED PEPTIDES AND METHODS THEREOF” (priority 2020, published 2024).

The first data set can be described thus: CHI Log D procedure. Conditions: pH 7.4. Format: physicochemical.
In the case of `CC(=O)N[C@@H](Cc1ccccc1)C(=O)N[C@@H](CC(=O)O)C(=O)N[C@@H](C)C(=O)N[C@]1(C)CCCCCCC=CCOC(=O)N2CC[C@@](C(=O)N[C@@H](Cc3cccnc3)C(=O)N[C@@H](Cc3c[nH]c4ccccc34)C(=O)N[C@@H](CCC(N)=O)C(N)=O)(C2)NC(=O)[C@H](C(C)C)NC(=O)[C@H](Cc2ccccc2)NC(=O)[C@H](C)NC(=O)[C@H](C)NC(=O)[C@H](CC(=O)O)NC(=O)[C@H](CC(=O)O)NC1=O` (single isomer, unassigned) [I-83, Ac-Phe-Asp-Ala-R8-Asp-Asp-Ala-Ala-Phe-Val-PyrS-3PyrA-Trp-Gln-NH2], the “CHI Log D” value is listed as 1.032.
`CC(=O)N[C@@H](Cc1ccccc1)C(=O)N[C@@H](CC(=O)O)C(=O)N[C@@H](C)C(=O)N[C@]1(C)CCCCCCC=CCOC(=O)N2CC[C@@](C(=O)N[C@@H](Cc3ccncc3)C(=O)N[C@@H](Cc3c[nH]c4ccccc34)C(=O)N[C@@H](CCC(N)=O)C(N)=O)(C2)NC(=O)[C@H](C(C)C)NC(=O)[C@H](Cc2ccccc2)NC(=O)[C@H](C)NC(=O)[C@H](C)NC(=O)[C@H](CC(=O)O)NC(=O)[C@H](CC(=O)O)NC1=O` (single isomer, unassigned) [I-85, Ac-Phe-Asp-Ala-R8-Asp-Asp-Ala-Ala-Phe-Val-PyrS-4PyrA-Trp-Gln-NH2]: the “CHI Log D” value is on record as 0.998.
As to `CC(=O)N[C@@H](Cc1ccccc1)C(=O)N[C@@H](CC(=O)O)C(=O)N[C@@H](C)C(=O)N[C@]1(C)CCCCCCC=CCOC(=O)N2CC[C@@](C(=O)N[C@@H](Cc3ccccc3)C(=O)N[C@@H](Cc3c[nH]c4ccccc34)C(=O)N[C@@H](CCC(N)=O)C(N)=O)(C2)NC(=O)[C@H](C(C)C)NC(=O)[C@H](Cc2cccnc2)NC(=O)[C@H](C)NC(=O)[C@H](C)NC(=O)[C@H](CC(=O)O)NC(=O)[C@H](CC(=O)O)NC1=O` (single isomer, unassigned) [I-88, Ac-Phe-Asp-Ala-R8-Asp-Asp-Ala-Ala-3PyrA-Val-PyrS-Phe-Trp-Gln-NH2], the “CHI Log D” value is listed as 1.239.
Take `CC(=O)N[C@@H](Cc1ccccc1)C(=O)N[C@@H](CC(=O)O)C(=O)N[C@@H](C)C(=O)N[C@]1(C)CCCCCCC=CCOC(=O)N2CC[C@@](C(=O)N[C@@H](Cc3ccccc3)C(=O)N[C@@H](Cc3c[nH]c4ccccc34)C(=O)N[C@@H](CCC(N)=O)C(N)=O)(C2)NC(=O)[C@H](C(C)C)NC(=O)[C@H](CC2CCCC2)NC(=O)[C@H](C)NC(=O)[C@H](C)NC(=O)[C@H](CC(=O)O)NC(=O)[C@H](CC(=O)O)NC1=O` (single isomer, unassigned) [I-96, Ac-Phe-Asp-Ala-R8-Asp-Asp-Ala-Ala-CypA-Val-PyrS-Phe-Trp-Gln-NH2]: the “CHI Log D” value was found to be 1.343.
In the case of `CC(=O)N[C@@H](Cc1ccccc1)C(=O)N[C@@H](CC(=O)O)C(=O)N[C@@H](C)C(=O)N[C@]1(C)CCCCCCC=CCOC(=O)N2CC[C@@](C(=O)N[C@@H](Cc3ccccc3)C(=O)N[C@@H](Cc3c[nH]c4ccccc34)C(=O)N[C@@H](CCC(N)=O)C(N)=O)(C2)NC(=O)[C@H](C(C)C)NC(=O)[C@H](Cc2ccccc2)NC(=O)[C@H](C)NC(=O)[C@H](C)NC(=O)[C@H](CCc2ccccc2)NC(=O)[C@H](CC(=O)O)NC1=O` (single isomer, unassigned) [I-98, Ac-Phe-Asp-Ala-R8-Asp-hPhe-Ala-Ala-Phe-Val-PyrS-Phe-Trp-Gln-NH2], the chromatographic logD turned out to be 2.08.

The data set is the same for the next values; noted with them: pH 7.4, CHI Log D.
Compound `CC(=O)N[C@@H](Cc1ccccc1)C(=O)N[C@@H](CC(=O)O)C(=O)N[C@@H](C)C(=O)N[C@]1(C)CCCCCCC=CCOC(=O)N2CC[C@@](C(=O)N[C@@H](Cc3ccccn3)C(=O)N[C@@H](Cc3c[nH]c4ccccc34)C(=O)N[C@@H](CCC(N)=O)C(N)=O)(C2)NC(=O)[C@H](C(C)C)NC(=O)[C@H](Cc2ccccc2)NC(=O)[C@H](C)NC(=O)[C@H](C)NC(=O)[C@H](CC(=O)O)NC(=O)[C@H](CC(=O)O)NC1=O` (single isomer, unassigned) [I-80, Ac-Phe-Asp-Ala-R8-Asp-Asp-Ala-Ala-Phe-Val-PyrS-2PyrA-Trp-Gln-NH2] gave a chromatographic logD of 1.04.
Take `CC(=O)N[C@@H](Cc1ccccc1)C(=O)N[C@@H](CC(=O)O)C(=O)N[C@@H](C)C(=O)N[C@]1(C)CCCCCCC=CCOC(=O)N2CC[C@@](C(=O)N[C@@H](Cc3cccnc3)C(=O)N[C@@H](Cc3c[nH]c4ccccc34)C(=O)N[C@@H](CCC(N)=O)C(N)=O)(C2)NC(=O)[C@H](C(C)C)NC(=O)[C@H](Cc2ccccc2)NC(=O)[C@H](C)NC(=O)[C@H](C)NC(=O)[C@H](CC(=O)O)NC(=O)[C@H](CC(=O)O)NC1=O` (single isomer, unassigned) [I-82, Ac-Phe-Asp-Ala-R8-Asp-Asp-Ala-Ala-Phe-Val-PyrS-3PyrA-Trp-Gln-NH2]: the chromatographic logD came out at 1.
`CC(=O)N[C@@H](Cc1ccccc1)C(=O)N[C@@H](CC(=O)O)C(=O)N[C@@H](C)C(=O)N[C@]1(C)CCCCCCC=CCOC(=O)N2CC[C@@](C(=O)N[C@@H](Cc3ccncc3)C(=O)N[C@@H](Cc3c[nH]c4ccccc34)C(=O)N[C@@H](CCC(N)=O)C(N)=O)(C2)NC(=O)[C@H](C(C)C)NC(=O)[C@H](Cc2ccccc2)NC(=O)[C@H](C)NC(=O)[C@H](C)NC(=O)[C@H](CC(=O)O)NC(=O)[C@H](CC(=O)O)NC1=O` (single isomer, unassigned) [I-84, Ac-Phe-Asp-Ala-R8-Asp-Asp-Ala-Ala-Phe-Val-PyrS-4PyrA-Trp-Gln-NH2] yielded a chromatographic logD of 0.985.
On to `CC(=O)N[C@@H](Cc1ccccc1)C(=O)N[C@@H](CC(=O)O)C(=O)N[C@@H](C)C(=O)N[C@]1(C)CCCCCCC=CCOC(=O)N2CC[C@@](C(=O)N[C@@H](Cc3ccccc3)C(=O)N[C@@H](Cc3c[nH]c4ccccc34)C(=O)N[C@@H](CCC(N)=O)C(N)=O)(C2)NC(=O)[C@H](C(C)C)NC(=O)[C@H](Cc2cccnc2)NC(=O)[C@H](C)NC(=O)[C@H](C)NC(=O)[C@H](CC(=O)O)NC(=O)[C@H](CC(=O)O)NC1=O` (single isomer, unassigned) [I-87, Ac-Phe-Asp-Ala-R8-Asp-Asp-Ala-Ala-3PyrA-Val-PyrS-Phe-Trp-Gln-NH2], for which the chromatographic logD is 1.15.
Still for that read-out and setting: the figure for `CC(=O)N[C@@H](Cc1ccccc1)C(=O)N[C@@H](CC(=O)O)C(=O)N[C@@H](C)C(=O)N[C@]1(C)CCCCCCC=CCOC(=O)N2CC[C@@](C(=O)N[C@@H](Cc3ccc(C(N)=O)cc3)C(=O)N[C@@H](Cc3c[nH]c4ccccc34)C(=O)N[C@@H](CCC(N)=O)C(N)=O)(C2)NC(=O)[C@H](C(C)C)NC(=O)[C@H](Cc2ccccc2)NC(=O)[C@H](C)NC(=O)[C@H](C)NC(=O)[C@H](CC(=O)O)NC(=O)[C@H](CC(=O)O)NC1=O` (single isomer, unassigned) [I-90, Ac-Phe-Asp-Ala-R8-Asp-Asp-Ala-Ala-Phe-Val-PyrS-4CBMF-Trp-Gln-NH2] is 0.958.
`CC(=O)N[C@@H](Cc1ccccc1)C(=O)N[C@@H](CC(=O)O)C(=O)N[C@@H](C)C(=O)N[C@]1(C)CCCCCCC=CCOC(=O)N2CC[C@@](C(=O)N[C@@H](CC3CCCC3)C(=O)N[C@@H](Cc3c[nH]c4ccccc34)C(=O)N[C@@H](CCC(N)=O)C(N)=O)(C2)NC(=O)[C@H](C(C)C)NC(=O)[C@H](Cc2ccccc2)NC(=O)[C@H](C)NC(=O)[C@H](C)NC(=O)[C@H](CC(=O)O)NC(=O)[C@H](CC(=O)O)NC1=O` (single isomer, unassigned) [I-93, Ac-Phe-Asp-Ala-R8-Asp-Asp-Ala-Ala-Phe-Val-PyrS-CypA-Trp-Gln-NH2] registered a chromatographic logD of 1.32.

One may read the chromatographic logD as a lipophilicity value derived from retention on a column. High values mean a more lipophilic compound, low ones a more hydrophilic compound.
